The assay concerns the target T1, mouse ENT-1 transporter (Mus musculus, UniProt Q9JIM1).
T1 construct: expressed in transfected cells
T1 sequence (Q9JIM1 1-460): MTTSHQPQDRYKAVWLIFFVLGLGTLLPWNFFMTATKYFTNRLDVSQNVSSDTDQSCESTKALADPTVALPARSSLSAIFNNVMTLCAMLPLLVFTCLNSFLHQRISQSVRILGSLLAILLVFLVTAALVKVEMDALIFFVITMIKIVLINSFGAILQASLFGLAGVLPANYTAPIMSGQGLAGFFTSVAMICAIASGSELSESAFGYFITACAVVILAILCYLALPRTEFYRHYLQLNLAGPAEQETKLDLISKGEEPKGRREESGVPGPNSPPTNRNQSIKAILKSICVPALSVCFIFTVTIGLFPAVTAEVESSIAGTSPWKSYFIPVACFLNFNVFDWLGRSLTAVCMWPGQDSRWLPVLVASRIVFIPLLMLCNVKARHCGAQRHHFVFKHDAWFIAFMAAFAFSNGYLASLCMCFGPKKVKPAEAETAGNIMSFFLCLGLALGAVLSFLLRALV
The assay can be described thus: Adenosine transport activity (ENT1, [3H]-adenosine uptake inhibition). Format: cell-based. The note with it: stable cells expressing mouse ENT-1; [2,8-3H]-adenosine 6 nM, 20 min. The method, then: To measure adenosine transport activity of ENT-1 mammalian cells, stable cells expressing the mouse ENT-1 transporter were plated on day 1 in 96-well culture plates at the density of 60,000 cells/well, in complete DMEM/F12 medium supplemented with glutamax, 10% FBS and 10 μg/ml puromycin. On day 2, the medium was aspirated and the cells were washed twice with uptake buffer (10 mM Hepes-Tris, pH 7.4 containing 150 mM NaCl, 1 mM CaCl2, 2.5 mM KCl, 2.5 mM MgSO4, 10 mM D-glucose) (UB). For inhibition experiments, cells were then incubated at RT with various concentrations of compounds with 1% DMSO final. Non-specific uptake was defined in the presence of 10 μM S-(4-Nitrobenzyl)-6-thioinosine (NBTI, Sigma Cat #N2255). A solution containing [2,8-^3H]-adenosine 6 nM (40 Ci/mmol, American Radiolabeled chemicals Inc, Cat #ART 0287A) was then immediately added to the wells. The plates were then incubated for 20 min with gentle shaking and the reaction was stopped by aspiration of the mixture and washing (three times) with ice-cold UB. The cells were lysed by the addition of scintillation liquid, shaken 3 hours and the radioactivity in the cells was estimated using a microplates scintillation counter (TopCount NXT, Packard).

What is called IC50 is the concentration that gives 50% inhibition. Lower therefore signals inhibition by little substance. In turn, `Cc1ncc(-c2ccc3c(c2)N(c2ccc4oc(C)nc4n2)C(=O)C3(C)C)cn1` [Example 45, 3,3-Dimethyl-1-(2-methyloxazolo[4,5-b]pyridin-5-yl)-6-(2-methylpyrimidin-5-yl)indolin-2-one] registered an IC50 of 593 nM. Turning to `Cc1ncc(-c2ccc3c(c2)N(c2ccc(C)c(N)n2)C(=O)C3(C)C)cn1` [Example 29, 1-(6-Amino-5-methylpyridin-2-yl)-3,3-dimethyl-6-(2-methylpyrimidin-5-yl)indolin-2-one], the IC50 amounted to 126 nM.

`Cc1ncc(-c2ccc3c(c2)N(c2cncc(N4C(=O)O[C@H]5CC[C@H]54)n2)C(=O)C3(C)C)cn1` (racemic) [Example 55, rac-(1S,5R)-4-(6-(3,3-Dimethyl-6-(2-methylpyrimidin-5-yl)-2-oxoindolin-1-yl)pyrazin-2-yl)-2-oxa-4-azabicyclo[3.2.0]heptan-3-one] yielded an IC50 of 24.8 nM. In turn, `Cc1ncc(-c2ccc3c(c2)N(c2cnc(N4[C@@H]5COC[C@H]4C5)cn2)C(=O)C3(C)C)cn1` [Example 51, 1-(5-((1R,5S)-3-Oxa-6-azabicyclo[3.1.1]heptan-6-yl)pyrazin-2-yl)-3,3-dimethyl-6-(2-methylpyrimidin-5-yl)indolin-2-one] displayed an IC50 of 227 nM. In turn, `Cc1ncc(-c2ccc3c(c2)N(c2cccc4[nH]ccc24)C(=O)C3(C)C)cn1` [Example 33, 1-(1H-Indol-4-yl)-3,3-dimethyl-6-(2-methylpyrimidin-5-yl)indolin-2-one] showed an IC50 of 742 nM.

Consider `CC(=O)Nc1cncc(N2C(=O)C(C)(C)c3ccc(-c4cnc(C)nc4)cc32)n1` [Example 5, N-(6-(3,3-Dimethyl-6-(2-methylpyrimidin-5-yl)-2-oxoindolin-1-yl)pyrazin-2-yl)acetamide], for which the IC50 amounted to 48 nM. For `Cc1ncc(-c2ccc3c(c2)N(c2cncc(N4C(=O)OC[C@H]4C(C)C)n2)C(=O)C3(C)C)cn1` [Example 21, (R)-3-(6-(3,3-Dimethyl-6-(2-methylpyrimidin-5-yl)-2-oxoindolin-1-yl)pyrazin-2-yl)-4-isopropyloxazolidin-2-one], the IC50 is 238 nM. Consider `Cc1ncc(-c2ccc3c(c2)N(c2ccc4c(n2)NC(=O)C4(C)C)C(=O)C3(C)C)cn1` [Example 37, 6-(3,3-Dimethyl-6-(2-methylpyrimidin-5-yl)-2-oxoindolin-1-yl)-3,3-dimethyl-1H-pyrrolo[2,3-b]pyridin-2(3H)-one], for which the IC50 stood at 6.7 nM. This IC50 lies about 36-fold lower than the previous one. With `Cc1ncc(-c2ccc3c(c2)N(c2ccc4c(c2)NC(=O)C4(C)C)C(=O)C3(C)C)cn1` [Example 44, 3,3,3′,3′-Tetramethyl-6-(2-methylpyrimidin-5-yl)-[1,6′-biindoline]-2,2′-dione] the figure was 128 nM; with `COCCNc1cncc(N2C(=O)C(C)(C)c3ccc(-c4cnc(C)nc4)cc32)n1` [Example 8, 1-[6-(2-Methoxyethylamino)pyrazin-2-yl]-3,3-dimethyl-6-(2-methylpyrimidin-5-yl)indol-2-one], 87.6 nM; with `Cc1ncc(-c2ccc3c(c2)N(c2cnc4c(c2)NC(=O)CO4)C(=O)C3(C)C)cn1` [Example 38, 7-(3,3-Dimethyl-6-(2-methylpyrimidin-5-yl)-2-oxoindolin-1-yl)-1H-pyrido[2,3-b][1,4]oxazin-2(3H)-one], 61.4 nM. In the case of `Cc1ncc(-c2ccc3c(c2)N(c2ccnc(N4CCOCC4)n2)C(=O)C3(C)C)cn1` [Example 23, 3,3-Dimethyl-6-(2-methylpyrimidin-5-yl)-1-(2-morpholinopyrimidin-4-yl)indolin-2-one] it was 52.2 nM; in that of `Cc1ncc(-c2ccc3c(c2)N(c2cncc(N4CCC(C)(O)CC4)n2)C(=O)C3(C)C)cn1` [Example 11, 1-(6-(4-Hydroxy-4-methylpiperidin-1-yl)pyrazin-2-yl)-3,3-dimethyl-6-(2-methylpyrimidin-5-yl)indolin-2-one], 33.8 nM. Regarding `Cc1ncc(-c2ccc3c(c2)N(c2ccc(C)c(N4CCOCC4)n2)C(=O)C3(C)C)cn1` [Example 31, 3,3-Dimethyl-1-(5-methyl-6-morpholinopyridin-2-yl)-6-(2-methylpyrimidin-5-yl)indolin-2-one], the IC50 is 40.1 nM. `COCCNc1nc(N2C(=O)C(C)(C)c3ccc(-c4cnc(C)nc4)cc32)cnc1C` [Example 19, 1-(6-((2-Methoxyethyl)amino)-5-methylpyrazin-2-yl)-3,3-dimethyl-6-(2-methylpyrimidin-5-yl)indolin-2-one] registered an IC50 of 110 nM. This IC50 lies about 2.7-fold higher than the previous one. `COCCN(C)c1cncc(N2C(=O)C(C)(C)c3ccc(-c4cnc(C)nc4)cc32)n1` [Example 12, 1-(6-((2-Methoxyethyl)(methyl)amino)pyrazin-2-yl)-3,3-dimethyl-6-(2-methylpyrimidin-5-yl)indolin-2-one] came in with an IC50 of 54.5 nM.

Molecule `Cc1ncc(-c2ccc3c(c2)N(c2cncc(N4C(=O)OC[C@@H]4C(C)C)n2)C(=O)C3(C)C)cn1` [Example 22, (S)-3-(6-(3,3-Dimethyl-6-(2-methylpyrimidin-5-yl)-2-oxoindolin-1-yl)pyrazin-2-yl)-4-isopropyloxazolidin-2-one] came in with an IC50 of 387 nM. `Cc1ncc(-c2ccc3c(c2)N(c2ccc4ccn(C)c4c2)C(=O)C3(C)C)cn1` [Example 62, 3,3-Dimethyl-1-(1-methyl-1H-indol-6-yl)-6-(2-methylpyrimidin-5-yl)indolin-2-one]: the IC50 came out at 428 nM.

Turning to `Cc1ncc(-c2ccc3c(c2)N(c2cnc(N4CCOCC4)cn2)C(=O)C3(C)C)cn1` [Example 49, 3,3-Dimethyl-6-(2-methylpyrimidin-5-yl)-1-(5-morpholinopyrazin-2-yl)indolin-2-one], the midpoint of inhibition, the IC50, lay at 415 nM.

For the molecule `Cc1ncc(-c2ccc3c(c2)N(c2cccc(N4CCOC4=O)n2)C(=O)C3(C)C)cn1` [Example 28, 3-(6-(3,3-Dimethyl-6-(2-methylpyrimidin-5-yl)-2-oxoindolin-1-yl)pyridin-2-yl)oxazolidin-2-one], half-maximal inhibition (IC50) required 5 nM. In the case of `Cc1ncc(-c2ccc3c(c2)N(c2cnc(NCCO)cn2)C(=O)C3(C)C)cn1` [Example 52, 1-(5-((2-Hydroxyethyl)amino)pyrazin-2-yl)-3,3-dimethyl-6-(2-methylpyrimidin-5-yl)indolin-2-one], half-maximal inhibition (IC50) was put at 239 nM. `Cc1ncc(-c2ccc3c(c2)N(c2cncc(N4CCCC4)n2)C(=O)C3(C)C)cn1` [Example 4, 3,3-Dimethyl-6-(2-methylpyrimidin-5-yl)-1-(6-(pyrrolidin-1-yl)pyrazin-2-yl)indolin-2-one] returned an IC50 of 253 nM. In the case of `Cc1ncc(-c2ccc3c(c2)N(c2ccc4nnn(C)c4c2)C(=O)C3(C)C)cn1` [Example 48, 3,3-Dimethyl-1-(1-methyl-1H-benzo[d][1,2,3]triazol-6-yl)-6-(2-methylpyrimidin-5-yl)indolin-2-one] it was 184 nM; in that of `Cc1ncc(-c2ccc3c(c2)N(c2cccc(N4CCOCC4)n2)C(=O)C3(C)C)cn1` [Example 27, 3,3-Dimethyl-6-(2-methylpyrimidin-5-yl)-1-(6-morpholinopyridin-2-yl)indolin-2-one], 57.5 nM. For the molecule `Cc1ncc(-c2ccc3c(c2)N(c2cncc(N4CCS(=O)(=O)CC4)n2)C(=O)C3(C)C)cn1` [Example 10, 1-(6-(1,1-Dioxidothiomorpholino)pyrazin-2-yl)-3,3-dimethyl-6-(2-methylpyrimidin-5-yl)indolin-2-one], half-maximal inhibition (IC50) required 29.6 nM. `COc1ccc(CN2C(=O)C(C)(C)c3ccc(N4C(=O)C(C)(C)c5ccc(-c6cnc(C)nc6)cc54)cc32)cc1` [Example 42, 1′-(4-Methoxybenzyl)-3,3,3′,3′-tetramethyl-6-(2-methylpyrimidin-5-yl)-[1,6′-biindoline]-2,2′-dione] came in with an IC50 of 193 nM. In turn, `Cc1ncc(-c2ccc3c(c2)N(c2cncc(N4CC(C)(C)OC4=O)n2)C(=O)C3(C)C)cn1` [Example 56, 3-(6-(3,3-Dimethyl-6-(2-methylpyrimidin-5-yl)-2-oxoindolin-1-yl)pyrazin-2-yl)-5,5-dimethyloxazolidin-2-one] displayed an IC50 of 202 nM. The IC50 values of the last two molecules are within 1.5-fold of each other. In the case of `Cc1ncc(-c2ccc3c(c2)N(c2cncc(N4C[C@H]5C[C@@H](C4)O5)n2)C(=O)C3(C)C)cn1` [Example 16, 1-(6-((1R,5S)-6-Oxa-3-azabicyclo[3.1.1]heptan-3-yl)pyrazin-2-yl)-3,3-dimethyl-6-(2-methylpyrimidin-5-yl)indolin-2-one] it was 88.7 nM. In turn, `Cc1ncc(-c2ccc3c(c2)N(c2ccc4c(c2F)N(C)C(=O)C4(C)C)C(=O)C3(C)C)cn1` [Example 46, 7′-Fluoro-1′,3,3,3′,3′-pentamethyl-6-(2-methylpyrimidin-5-yl)-[1,6′-biindoline]-2,2′-dione] displayed an IC50 of 244 nM.

These data come from patent US10519140B2, “Indolin-2-one derivatives” (Hoffmann-La Roche Inc., priority 2015, dated 2019).
